We go through seven molecules from patent publication US20100009934A1, “BETA ADRENERGIC RECEPTOR AGONISTS FOR THE TREATMENT OF B-CELL PROLIFERATIVE DISORDERS” (CombinatoRx, Incorporated, priority 2008, published 2010).

Assay [1] relates to Human Multiple Myeloma Cells (MM.1S). Put plainly: Anti-proliferation assay (ATPLite, 72 hours), MM.1S. The settings on record: Homo sapiens, MM1.S. (In ATP-based viability assays light output follows the ATP content of the culture.)
The test system is the same in assay [2]. Put plainly: Antiproliferative activity on MM.1S in the presence of beta adrenergic receptor antagonist (CGP 12177A or ICI 118,551). The format is cell-based.
Assay [3] concerns Human Multiple Myeloma Cells (EJM). Put plainly: Anti-proliferation assay (ATPLite, 72 hours), EJM. The settings on record: for Antiproliferative Activity: DEX μM r7-r15: 2.03, 0.675, 0.225, 0.075, 0.025, 0.00834, 0.00278, 0.00093, 0.
Assay [4] deals with Human Multiple Myeloma Cells (ANBL-6). Put plainly: Anti-proliferation assay (ATPLite, 72 hours), ANBL-6.
Assay [5] has as its system MM.1S cells. Put plainly: Annexin V / propidium iodide apoptosis assay, MM.1S. It counts as cell-based, human. To be noted: 72 hours (FIG. 2). How it is done:
Effects on cell viability were determined by measuring the percent of cells that were annexin V positive (an early marker for apoptosis) and by measuring the percent of cells propidium iodide (PI) positive, an indicator that cellular membranes are compromised and a marker of cell death.

Where [6] appears, read: read-out: percent inhibition of cell proliferation.
Setting [7] is: Homo sapiens, Multiple myeloma cell, 72 h, read-out: percent inhibition of cell proliferation.
[8] abbreviates: 72 h, read-out: percent inhibition of cell proliferation.
Where [9] appears, read: 72 h, read-out: percent inhibition (% I).
Setting [10] is: read-out: Antiproliferative Activity (inhibition of proliferation).
Setting [11] is: Homo sapiens, ANBL-6, 72 h, read-out: percent inhibition (% I).
[12] abbreviates: Homo sapiens, ANBL-6, read-out: percent inhibition of cell proliferation.

Where “and” joins values, the source holds several entries; their conditions need not be identical. Identical values can stand only once. Like-named read-outs stand apart in the source and are kept apart here.

In the case of `CC(C)(C)NCC(O)c1cc(Cl)c(N)c(Cl)c1` (stereo not drawn) [Clenbuterol], in assay [1] (setting [6]), the inhibition at 0.0006 µM was determined as 66%; the inhibition at 0.01 µM was 78%; the inhibition at […] is 61% and 62% and 57%.
Take `CC(CCc1ccc(O)cc1)NCCc1ccc(O)c(O)c1` (stereo not drawn) [Dobutamine, dobutamine]: the inhibition at […] is 2.2% in assay [2] (Homo sapiens, MM1.S, in the presence of 0.91 μM ICI, 118,551, Dobutamine 0.063 μM, Dexamethasone (μM) by row: r8 0.15, r9 0.076, r10 0.038, r11 0.019, r12 0.0095, r13 0, read-out: percent inhibition of cell proliferation); 2% in assay [2] (Homo sapiens, MM1.S, in the presence of 0.91 μM ICI, 118,551, Dobutamine 0.13 μM, Dexamethasone (μM) by row: r8 0.15, r9 0.076, r10 0.038, r11 0.019, r12 0.0095, r13 0, read-out: percent inhibition of cell proliferation); -5.4% in assay [2] (Homo sapiens, MM1.S, in the presence of 0.91 μM ICI, 118,551, Dobutamine 0.25 μM, Dexamethasone (μM) by row: r8 0.15, r9 0.076, r10 0.038, r11 0.019, r12 0.0095, r13 0, read-out: percent inhibition of cell proliferation); -2.8% in assay [2] (Homo sapiens, MM1.S, in the presence of 0.91 μM ICI, 118,551, Dobutamine 0.51 μM, Dexamethasone (μM) by row: r8 0.15, r9 0.076, r10 0.038, r11 0.019, r12 0.0095, r13 0, read-out: percent inhibition of cell proliferation). The inhibition at 1 µM was -1.8% in assay [2] (Homo sapiens, MM1.S, in the presence of 0.91 μM ICI, 118,551, Dobutamine 1.0 μM, Dexamethasone (μM) by row: r8 0.15, r9 0.076, r10 0.038, r11 0.019, r12 0.0095, r13 0, read-out: percent inhibition of cell proliferation) and 28% in assay [1] (setting [6]). Moreover, the inhibition at 0.0316 µM in assay [3] (setting [7]) was -2.3%; in assay [1] (setting [8]), -2.04%. Besides, the figures for the inhibition at 0.506 µM in assay [3] (setting [7]) and in assay [1] (setting [8]) were 21.5% and 22.9%, respectively.
`Cc1ccc(OCC(O)C(C)NC(C)C)c2c1CCC2` (stereo not drawn) [ICI, 118,551]: the “percent inhibition of cell proliferation” value in assay [2] (in the presence of […] ICI, 118,551, Dobutamine 0 μM, Dexamethasone (μM) by row: r8 0.15, r9 0.076, r10 0.038, r11 0.019, r12 0.0095, r13 0 (ICI alone)) was 1.9%.
Consider `CCC(NC(C)C)C(O)c1ccc(O)c(O)c1` (stereo not drawn) [Isoetharine], for which the results for the “Antiproliferative Activity” value in assay [3] (Isoetharine 0.000158 μM), in assay [3] (Isoetharine 0.000316 μM) and in assay [3] (Isoetharine 0.00506 μM) were 7.35, 7.35 and 29, respectively.
As to `COc1ccc(CC(C)NCC(O)c2ccc(O)c(NC=O)c2)cc1` (stereo not drawn) [formoterol], in assay [1] (setting [9]), the inhibition at 2.53 pM came out at 18.9%, the inhibition at 5.06 pM worked out at 23.8%, the inhibition at 10.1 pM was 40.8% and the inhibition at 20.2 pM amounted to 52.7%. Further, in assay [1] (setting [9]), the inhibition at 40.5 pM stood at 54.7% and the inhibition at 81 pM came out at 65.9%. Also, in assay [1] (setting [10]), the inhibition at 2.53 pM worked out at 22.4%, the inhibition at 5.06 pM amounted to 36.2%, the inhibition at 10.1 pM was 40.7% and the inhibition at 20.2 pM came out at 51%. In addition, in assay [1] (setting [10]), the inhibition at 40.5 pM was 57.5% and the inhibition at 81 pM was determined as 65.7%. Besides, the inhibition at 20.2 pM in assay [1] (read-out: inhibition of proliferation, single agent) amounted to 51%. For the same molecule, in assay [4] (setting [11]), the inhibition at 2.53 pM stood at 23.3%, the inhibition at 5.06 pM was 26.7%, the inhibition at 10.1 pM worked out at 30% and the inhibition at 20.2 pM was 39.9%. In assay [4] (setting [11]), the inhibition at 40.5 pM is 48.8% and the inhibition at 81 pM is 55.4%.
With `Nc1cccc2c1CN(C1CCC(=O)NC1=O)C2=O` (stereo not drawn) [lenalidomide], in assay [5] (1 μM lenalidomide), the “induction of MM.1S cell apoptosis” value was “negligible effects”. In addition, the “Antiproliferative Activity” value in assay [4] (Salmeterol 0 μM (LEN alone), LEN μM r7-r15: 4.04, 2.02, 1.01, 0.505, 0.253, 0.126, 0.0632, 0.0316, 0) is 53.5 and 51.8 and 52.5 and 44.8 and 34.3 and 61.9 and 52.8 and 54.3.
With `COc1cc2c(cc1OC)-c1cc(=Nc3c(C)cc(C)cc3C)n(C)c(=O)n1CC2` [trequinsin, 2,3,6,7-tetrahydro-9,10-dimethoxy-3-methyl-2-((2,4,6-trimethylphenyl)imino)-4H-pyrimido(6,1-a)isoquinolin-4-one], the “induction of MM.1S cell apoptosis” value in assay [5] (2 μM trequinsin) was “negligible effects”. Further, in assay [4] (setting [12]), the inhibition at 0.00464 µM came to 2.91%, the inhibition at 0.125 µM was 4.39% and the inhibition at 0.375 µM is 7.82%.
